The values below come from US20170342026A1, “ISOPROPOXY-PHENYLGUANIDINE SERIES SALT AND APPLICATION THEREOF IN PREPARING GROWTH PROMOTERS FOR ANIMAL FEED” (GUANGZHOU INSIGHTER BIOTECHNOLOGY CO., LTD., priority 2015, published 2017).

Type in all cases: in vivo
Data set [1] relates to broilers. As to the kind of experiment: Effects of the series of salts of isopropoxy-phenylguanidine on production performance of broilers. Particulars: 50 ppm in feed, 30 days; for Average daily weight gain / Average feed conversion ratio / Survival rate (%): 1-day-old broilers; for effect on production performance compared with hydrochloride: broilers. The procedure: One thousand and five hundred (1500) 1-day-old broilers were divided into 15 groups and each group with 100 broilers. Different types of salts of isopropoxy-phenylguanidine were added to the same basic diets. The broilers were free feeding and drinking and continued feeding for 30 days, then to collect statistics of the production performance and the survival rate of broilers in each group.

Data set [2] concerns Duroc×Landrace×Large White piglets. As to the kind of experiment: Effects of the salts of isopropoxy-phenylguanidine in a feed for pigs. The following applies: 100 ppm in feed; for Average daily weight gain / Feed conversion ratio: piglets aged 28 days; for effect on production performance compared with hydrochloride: pigs, 28 days. The procedure: One hundred and twenty (120) Duroc×Landrace×Large White piglets aged 28 days with similar body weight were randomly divided into 6 groups, each with 20 pigs. Different types of salts of isopropoxy-phenylguanidine were added to the feeds respectively in accordance with Table 3. The pigs were free feeding and drinking during the test period of 28 days.

The test system of a further data set is Cherry Valley ducks. As to the kind of experiment: Effects of the salts of isopropoxy-phenylguanidine in a feed for ducks. The following applies: 50 ppm in feed, 28 days; for Average daily weight gain / Feed conversion ratio: ducks aged 1 day; for effect on production performance compared with hydrochloride: ducks. As for the experimental part:
Six hundred (600) Cherry Valley ducks aged 1 day were randomly divided into 6 groups, each with 100 ducks. Different types of salts of isopropoxy-phenylguanidine were added to the feed according to Table 4. The ducks were free feeding and drinking during the test period of 28 days.

The test system of data set [3] is broilers. Briefly: Effects of different concentrations of isopropoxy-phenylguanidine methanesulfonate on production performance of broilers. The procedure:
Eight hundred (800) broilers aged 1 day were divided into 8 groups and each group with 100 broilers. Different concentrations of isopropoxy-phenylguanidine methanesulfonate were added to the same basic diets. The broilers were free feeding and drinking and continued feeding for 30 days, then to collect statistics of the production performance and the survival rate of broilers in each group.

The mark [4] stands for this setting: broilers, 5 ppm in feed, 30 days.
The mark [5] stands for this setting: broilers, 10 ppm in feed, 30 days.
[6] abbreviates: broilers, 20 ppm in feed, 30 days.
Where [7] appears, read: broilers, 50 ppm in feed, 30 days.
The mark [8] stands for this setting: broilers, 100 ppm in feed, 30 days.
Setting [9] is: broilers, 200 ppm in feed, 30 days.
Setting [10] is: broilers, 500 ppm in feed, 30 days.

The structures appear in SMILES notation.

For the molecule `CC(C)Oc1ccc(C=NNC(=N)NN=Cc2ccc(OC(C)C)cc2)cc1.O=C(O)/C=C/C(=O)O` [isopropoxy-phenylguanidine fumarate, 2,2′-bis[[4-(isopropoxy)phenyl]methylene]-diaminoguanidine fumarate], in the data set with broilers [1], the “Average daily weight gain” value came to 44.1 g, the “Average feed conversion ratio” value is 2.136 and the “Survival rate (%)” value stood at 99%.
For `CC(C)Oc1ccc(C=NNC(=N)NN=Cc2ccc(OC(C)C)cc2)cc1.O=C(O)CCC(=O)O` [isopropoxy-phenylguanidine succinate, 2,2′-bis[[4-(isopropoxy)phenyl]methylene]-diaminoguanidine succinate], in that order: 43.6 g, 2.143 and 100%.
The corresponding values for `CC(C)Oc1ccc(C=NNC(=N)NN=Cc2ccc(OC(C)C)cc2)cc1.O=C(O)c1ccccc1` [isopropoxy-phenylguanidine benzoate, 2,2′-bis[[4-(isopropoxy)phenyl]methylene]-diaminoguanidine benzoate] are 44.7 g, 2.126 and 100%.
The corresponding values for `CC(C)Oc1ccc(C=NNC(=N)NN=Cc2ccc(OC(C)C)cc2)cc1.O=C(O)C(O)C(O)C(=O)O` [isopropoxy-phenylguanidine tartrate, 2,2′-bis[[4-(isopropoxy)phenyl]methylene]-diaminoguanidine tartrate] are 43.9 g, 2.131 and 98%.
With `CC(=O)O.CC(C)Oc1ccc(C=NNC(=N)NN=Cc2ccc(OC(C)C)cc2)cc1` [isopropoxy-phenylguanidine acetate, 2,2′-bis[[4-(isopropoxy)phenyl]methylene]-diaminoguanidine acetate], in the data set with broilers [1], the “Average daily weight gain” value was 43.2 g, the “Average feed conversion ratio” value was 2.129 and the “Survival rate (%)” value is listed as 99%.
On to `CC(C)Oc1ccc(C=NNC(=N)NN=Cc2ccc(OC(C)C)cc2)cc1.CC(O)C(=O)O` [isopropoxy-phenylguanidine lactate, 2,2′-bis[[4-(isopropoxy)phenyl]methylene]-diaminoguanidine DL-lactate], for which, in the data set with broilers [1], the “Average daily weight gain” value is given as 47.9 g, the “Average feed conversion ratio” value amounted to 2.006, the “Survival rate (%)” value was 100% and the “effect on production performance compared with hydrochloride” value (“effect … compared with hydrochloride” below) is recorded as “better than hydrochloride”. Besides, in data set [2], the “Average daily weight gain” value stood at 535 g, the Feed conversion ratio came out at 1.701 and the “effect … compared with hydrochloride” value is “better than hydrochloride”. In the data set on Cherry Valley ducks, the “Average daily weight gain” value is given as 67.8 g, the Feed conversion ratio was 1.827 and the “effect … compared with hydrochloride” value is on record as “better than hydrochloride”.
As to `CC(C)Oc1ccc(C=NNC(=N)NN=Cc2ccc(OC(C)C)cc2)cc1.O=P(O)(O)O` [isopropoxy-phenylguanidine phosphate, 2,2′-bis[[4-(isopropoxy)phenyl]methylene]-diaminoguanidine phosphate], in the data set on broilers [1], the “Average daily weight gain” value is given as 44.0 g, the “Average feed conversion ratio” value worked out at 2.139 and the “Survival rate (%)” value was 100%. In the data set on Cherry Valley ducks, the “Average daily weight gain” value is recorded as 61.2 g and the Feed conversion ratio is on record as 1.926.
For the molecule `CC(C)Oc1ccc(C=NNC(=N)NN=Cc2ccc(OC(C)C)cc2)cc1.O=C(O)/C=C\C(=O)O` [isopropoxy-phenylguanidine maleate, 2,2′-bis[[4-(isopropoxy)phenyl]methylene]-diaminoguanidine maleate], in the data set with broilers [1], the “Average daily weight gain” value came to 44.1 g, the “Average feed conversion ratio” value was 2.137 and the “Survival rate (%)” value was 100%.
As to `CC(C)Oc1ccc(C=NNC(=N)NN=Cc2ccc(OC(C)C)cc2)cc1.Cl` [isopropoxy-phenylguanidine hydrochloride, 2,2′-bis[[4-(isopropoxy)phenyl]methylene]-diaminoguanidine hydrochloride, reference compound], in the data set on broilers [1], the “Average daily weight gain” value was 46.6 g, the “Average feed conversion ratio” value worked out at 2.087 and the “Survival rate (%)” value is 100%. In addition, in data set [2], the “Average daily weight gain” value came to 512 g and the Feed conversion ratio worked out at 1.754. For the same molecule, in the data set with Cherry Valley ducks, the “Average daily weight gain” value was 65.3 g and the Feed conversion ratio came to 1.874.
Consider `CC(C)Oc1ccc(C=NNC(=N)NN=Cc2ccc(OC(C)C)cc2)cc1.CS(=O)(=O)O` [2,2′-bis[[4-(isopropoxy)phenyl]methylene]-diaminoguanidine methanesulfonate], for which the “Average daily weight gain” value in the data set on broilers [1] amounted to 48.8 g; in data set [2], 529 g; in the data set on Cherry Valley ducks, 68.4 g. Also, in the data set on broilers [1], the “Average feed conversion ratio” value is recorded as 1.999. In addition, the “Survival rate (%)” value in the data set on broilers [1], with broilers [3] (setting [4]), in the data set on broilers [3] (setting [5]), in the data set with broilers [3] (setting [6]), in the data set on broilers [3] (setting [7]) and in the data set with broilers [3] (setting [8]) was 100% in each case. The “Survival rate (%)” value in the data set on broilers [3] (setting [9]) and in the data set with broilers [3] (setting [10]) was 100% throughout. The “effect … compared with hydrochloride” value (in the data set with broilers [1]; in data set [2]; in the data set with Cherry Valley ducks) was “better than hydrochloride” throughout. Moreover, the Feed conversion ratio amounted to 1.713 in data set [2]; 1.831 with Cherry Valley ducks; 2.150 in the data set on broilers [3] (setting [4]); 2.138 in the data set on broilers [3] (setting [5]); 2.119 in the data set on broilers [3] (setting [6]); 2.087 in the data set with broilers [3] (setting [7]). Also, the Feed conversion ratio in the data set on broilers [3] (setting [8]) was found to be 2.076; in the data set on broilers [3] (setting [9]), 2.071; in the data set with broilers [3] (setting [10]) it was 2.073. Besides, the “Daily weight gain” value in the data set on broilers [3] (setting [4]) is given as 42.3 g; in the data set on broilers [3] (setting [5]), 43.4 g; in the data set on broilers [3] (setting [6]), 44.5 g; with broilers [3] (setting [7]) it was 48.9 g; in the data set with broilers [3] (setting [8]), 49.6 g; in the data set with broilers [3] (setting [9]) it was 49.2 g. Also, in the data set with broilers [3] (setting [10]), the “Daily weight gain” value is listed as 49.5 g. For the same molecule, the “effect on production performance of broilers” value in the data set with broilers [3] (different concentrations (5-500 ppm) in feed, 30 days) was “significantly improve the production performance”. For the same molecule, in the data set on broilers [3] (high concentrations in feed, broilers), the “negative impacts on the production performance” value is “no negative impacts”.
Take `CC(C)Oc1ccc(C=NNC(=N)NN=Cc2ccc(OC(C)C)cc2)cc1.O=S(=O)(O)O` [isopropoxy-phenylguanidine sulfate, 2,2′-bis[[4-(isopropoxy)phenyl]methylene]-diaminoguanidine sulfate]: in the data set on broilers [1], the “Average daily weight gain” value is listed as 43.7 g, the “Average feed conversion ratio” value worked out at 2.131 and the “Survival rate (%)” value is given as 100%.
On to `CC(C)Oc1ccc(C=NNC(=N)NN=Cc2ccc(OC(C)C)cc2)cc1.O=S(=O)(O)CCO` [2,2′-bis[[4-(isopropoxy)phenyl]methylene]-diaminoguanidine 2-hydroxyethylsulfonate], for which, in the data set on broilers [1], the “Average daily weight gain” value amounted to 49.1 g, the “Average feed conversion ratio” value is given as 1.987, the “Survival rate (%)” value is on record as 100% and the “effect … compared with hydrochloride” value is recorded as “better than hydrochloride”. Besides, in data set [2], the “Average daily weight gain” value turned out to be 537 g, the Feed conversion ratio was found to be 1.697 and the “effect … compared with hydrochloride” value is reported as “better than hydrochloride”. Further, in the data set with Cherry Valley ducks, the “Average daily weight gain” value was 67.9 g, the Feed conversion ratio worked out at 1.835 and the “effect … compared with hydrochloride” value is “better than hydrochloride”.
Turning to `CC(C)Oc1ccc(C=NNC(=N)NN=Cc2ccc(OC(C)C)cc2)cc1.O=C(O)CC(O)(CC(=O)O)C(=O)O` [isopropoxy-phenylguanidine citrate, 2,2′-bis[[4-(isopropoxy)phenyl]methylene]-diaminoguanidine citrate], in the data set on broilers [1], the “Average daily weight gain” value was determined as 44.5 g, the “Average feed conversion ratio” value was 2.125 and the “Survival rate (%)” value worked out at 100%. For the same molecule, in data set [2], the “Average daily weight gain” value is given as 491 g and the Feed conversion ratio came to 1.803.
With `CC(C)Oc1ccc(C=NNC(=N)NN=Cc2ccc(OC(C)C)cc2)cc1.O=C(O)C(=O)O` [isopropoxy-phenylguanidine oxalate, 2,2′-bis[[4-(isopropoxy)phenyl]methylene]-diaminoguanidine oxalate], in the data set with broilers [1], the “Average daily weight gain” value is 43.1 g, the “Average feed conversion ratio” value stood at 2.145 and the “Survival rate (%)” value was 100%.
